Source: patent US5733569A, “Galenic compositions comprising calcitonin and their use” (Novartis Corporation, priority 1982, dated 1998)

Experiments:
[1] = test system: ciliary beating frequency of rat trachea; test: ciliary beating frequency, microphoto-oscillographic method of L. Chevance et al; conditions: at 0.6%, within 20 minutes
Description: 70, […] (1970). These are just some of the disadvantageous effects that can be encountered.
Moreover the compositions are well tolerated as indicated in standard tests, e.g. in that less than 50% inhibition of ciliary beating frequency is observed up to 20 minutes after administration, according to the microphoto-oscillographic method of L. Chevance et al, Acta Otolaryng. 70, 26-28 (1970).

Pen. steckii = test: preservative activity against test fungus in calcitonin nasal composition; conditions: chlorbutanol at 0.6% in calcitonin nasal pharmaceutical compositions
Source text: Very many well-known preserving agents present themselves for possible use in calcitonin pharmaceutical compositions. However experiment has shown that not all are suitable for practical use in relation to a calcitonin nasal spray.

[2] = relative bio-availability study nasal administration/intra-muscular injection of salmon calcitonin in healthy volunteers; format: in vivo; conditions: for time serum levels remain above the detectability limit: detectability limit 26 pg/ml
Description: The study is conducted with 12 healthy volunteers, 6 male and 6 female, with a body weight of from 50 to 85 kg. Each subject receives 4 administrations of salmon calcitonin, one intra-muscularly and 3 nasally. Administration is effected at the following dosages:
B. Intra-muscular: 50 MRC units.
Nasal administration is effected using composition in accordance with example 1 and a spray-applicator delivering 55 MRC units per individual spray dosage. For the purposes of administration the subject is laid on the back with the head tilted backwards for 5 minutes. The nostrils are cleaned by blowing of the nose immediately prior to administration.
Intra-muscular administration is effected by injection of a single 1 ml dose of a composition similar to that of example 1, but omitting benzalkonium chloride and containing 50 MRC units into the glutaeus medius muscle.
Each subject receives the 4 administrations in randomized sequence, and at least 3 days are allowed between consecutive administrations. Each administration is effected in the morning after a light breakfast from which milk, butter and cheese is excluded. 100 ml water or orange juice is taken hourly following treatment to maintain urinary output. Further food is allowed not earlier than 4 hours after treatment.
Blood samples are taken immediately prior to administration (control), and at intervals of 5, 15, 30, 60, 90, 120, 180, 240, 360 and 480 minutes following administration. For the control a 20 ml sample is taken. All subsequent samples are 2 ml samples.
The concentration of salmon calcitonin in each serum sample is measured by radio-immuno-assay. Blood-pressure is controlled during the course of the trial and urine-samples tested for possible adverse reaction. Occurrence of side-effects, e.g. symptoms of nausea, is noted.
The AUC ("area under curve") for salmon calcitonin plasma concentration is calculated statistically, once employing all value, including those below the 26 pg/ml detectability limit, once with values below the detectability limit read as zero. Maximal plasma concentration and time at which this is reached are also determined. Relative bio-availability for nasal administration is determined from the relative dosage-standardized AUC (i.e. based on 50 MRC units) following nasal and intra-muscular administration.

Row | Structure (SMILES) | inhibition of the ciliary beating frequency [1] | time required to reduce the cell count to less than 0.1% (Pen. steckii) | AUC values compared with 50 MRC units i.m. ([2]; 110 MRC units intra-nasally) | AUC values compared with 50 MRC units i.m. ([2]; 220 MRC units intra-nasally) | F rel ([2]; both sexes, plasma, inhaled or intranasal, nasal vs intra-muscular, human, read-out: bio-availability (blood-plasma concentration) following nasal administration relative to levels achieved on intra-muscular injection) [%] | time serum levels remain above the detectability limit ([2]; i.m. application of 50 MRC units) [h] | time serum levels remain above the detectability limit ([2]; nasal application of 110 MRC units) [h] | adverse side-effects following nasal administrations ([2]; nasal, up to the highest dosage of 220 MRC units)
1 | CC(C)(O)C(Cl)(Cl)Cl [chlorbutanol] | more than 50% | more than 3 days | – | – | – | – | – | –
2 | CC(C)C[C@H](NC(=O)[C@H](CCCCN)NC(=O)CNC(=O)[C@H](CC(C)C)NC(=O)[C@@H](NC(=O)[C@@H]1CSSC[C@H](N)C(=O)N[C@@H](CO)C(=O)N[C@@H](CC(N)=O)C(=O)N[C@@H](CC(C)C)C(=O)N[C@@H](CO)C(=O)N[C@@H]([C@@H](C)O)C(=O)N1)C(C)C)C(=O)N[C@@H](CO)C(=O)N[C@@H](CCC(N)=O)C(=O)N[C@@H](CCC(=O)O)C(=O)N[C@@H](CC(C)C)C(=O)N[C@@H](Cc1c[nH]cn1)C(=O)N[C@@H](CCCCN)C(=O)N[C@@H](CC(C)C)C(=O)N[C@@H](CCC(N)=O)C(=O)N[C@H](C(=O)N[C@@H](Cc1ccc(O)cc1)C(=O)N1CCC[C@H]1C(=O)N[C@@H](CCCNC(=N)N)C(=O)N[C@H](C(=O)N[C@@H](CC(N)=O)C(=O)N[C@H](C(=O)NCC(=O)N[C@@H](CO)C(=O)NCC(=O)N[C@H](C(=O)N1CCC[C@H]1C(N)=O)[C@@H](C)O)[C@@H](C)O)[C@@H](C)O)[C@@H](C)O [salmon calcitonin] | – | – | comparable | comparable | ~50 | 6 | 8 | No adverse side-effects
